This note sets out measurements from patent US20080286388A1, “Pharmaceutical Composition and Non Dependence Coffee Comprising Edible Carboxylic Acid and/or Its Acid Salts and Coffeine” (priority 2004, published 2008).

The subject of assay [1] is mouse's leaching cell solution (abdominal cavity cells), histamine release by 48/80 compound. As to the kind of experiment: Drug inhibiting effect on histamine leaching from mouse abdominal cavity cells treated with 48/80 compound. Type of assay: cell-based. Particulars: Mus musculus, testing drug 100 μg/ml. On the procedure: This is a comparative testing for drug depressing effect on the amount of leaching histamines when is treated with 48/80 (Sigma, St. MO, USA) compound.
(1). Preparation of Leaching Cell Solution from Mouse Body.
A mouse is killed and bloodletting. Then 10 ml of Locke's solution containing 0.1% bovine serum protein is injected into its abdominal cavity. After abdominal cavity being light massaged, the cavity is cut and the Locke's solution is removed. Cavity is washed with another 5 ml of Locke's solution, and this washed solution is added to the latter one. This combined solution is centrifuged at 600 rpm for 5 minutes. The sediments are washed with 5 ml of cool Locke's solution. Adding 3 ml of cold Locke's solution to the washed sediments, then a leached cell solution of abdominal cavity is obtained. (The composition of Locke's solution is: NaCL […], KCL 0.2%, CaCL2 0.15%, glucose 1.0%, in w/v, and the rest distillated water.)
(2). Drug Inhibiting Effect on the Amount of Leaching Histamines when Treated with 48/80 Compound.
1.0 ml of each of those solutions in last term is mixed with 0.3 ml of mouse's leaching cell solution and 0.5 ml of Locke's solution. This mixture is cultivated at 37° C. for 5 minutes. Then adding 0.2 ml of Locke's solution of 48/80 compound (1 mg/100 ml) and cultivated at 37° C. for 10 minutes. Then the reaction is stopped by cooling, and centrifuged at 2,500 rpm for 10 minutes. 1.7 ml of decanted solution and 0.3 ml of sediments are obtained.
0.1 ml of water and 0.2 ml of 100% trichloroacetic acid are added to the decanted solution. 1.5 ml of Locke's solution and 0.2 ml of 100% trichloroacetic acid are added to the sediments washed solution. They are cultivated at room temperature for 30 minutes. After cultivation, the mixtures are centrifuged at 3,000 rpm for 15 minutes, respectively. 0.35 ml of each of the former two solutions is sampled. In each sample, 1.65 ml of water, 0.4 ml of 1N NaOH and 0.1 ml of 0.5% OPT (o-phthalic aldehyde) in methanol are added and cultivated at room temperature for 4 minutes. The reaction is stopped by adding 0.2 ml of 2M citric acid. And finally, determine the amount of released histamines in the tested solution by fluorescence method. By the analysis, results of the inhibiting rate of histamines could be calculated.
Locke's solution is instead of each drug in control group, and instead of both drug and 48/80 compound solution in blank group.
The histamine releasing rate (A) can be calculated by following equation. […] Where (Hs) is the total amount of histamine in the decanted solution, and (Hr) is the total amount of histamine in the sediment. (A)=[(Hs)/{(Hs)+(Hr)}]×100%. Then the inhibiting rate is:
=100−[(A−A in blank group)/(A−A in control group)]×100%.

Another assay relates to mice. As to the kind of experiment: Anti-delayed type allergy reaction, oxazolone ear inflammation. Format: in vivo, mouse. The settings on record: drug 2.0 w/v % in oxazolone acetone solution, 10 μl on right ear, 24 hr. On the procedure: The weights of testing mice are ranging from 20 g to 30 g. They are coated with 0.1 ml of oxazolone alcohol solution (0.5 w/v %) on the hair cleaned part of abdomen. […] After 24 hr, the mouse is killed by ether and punched a circle area of a diameter of 5.5 mm on both right and left ears in corresponding part by a puncher machine (portions of drug coated and the blank). The punched portions are weighed and the inflammation rates calculated. The control group are coated only with the oxazolone acetone solution (0.5 w/v %). The inflammation inhibiting rates of each drug are calculated by following equation: Inflammation inhibiting rate (%)=[(weight of drug-coated right ear)−(weight of non-drug-coated left ear)]×100%/(weight of non-drug-coated left ear)

For assay [2], the system named is patients with toothache caused by a crowned tooth swelling. As to the kind of experiment: Analgesia and suppuration for tooth. Type of assay: in vivo, human. Particulars: 2 g every two hours. From the text: It is not a best method in treating a toothache caused by a crowned tooth swelling that the ill tooth must be extracted or the crown must be destructed first. […] About 8 and 10 days were needed to suppurate and recovery completely when they could chew again. This method can keep the ill tooth without extraction.

For another assay, the system named is person. As to the kind of experiment: Tests for increase the ability of learning and memory. Type of assay: in vivo, human. Particulars: Homo sapiens, po; three pieces of 600 mg, average of four tests before and after ingesting; read-out: Increase rate (%) of memory ability. On the procedure:
A person administrates see a random series of 100 numbers, typed by PC, for 10 minutes and memory it. Then recite and write down the memorized number series. To check the recited series with the original one to see how many numbers are correct. In each testing at least has 10 minutes interval, and repeat four times. […] Each kind of drugs testing is done in half day, morning or afternoon only. The testing results were counted by one correct number for one point. Make the average value of four times testing of before and after drug ingesting, respectively. The increase of learning or memory ability is calculated by following equation and listed in Table 14: Rate of increase of memory ability=[(average value of four time testing before ingesting drug)−(average value of four times testing after ingesting drug)]×100%/(average value of four time testing before ingesting drug)

“And” between values parts separate entries of the source, which are not always exact repeats. Equal values may be shown once. Read-outs that look alike come from different tables or passages of the source.

Consider `O=C(O)CC(O)C(=O)O` (stereo not shown) [Malic acid], for which the inhibition at 100 µg/mL in assay [1] (adding 5% of coffee extract, read-out: inhibiting rate (%) (adding 5% of coffee extract)) was determined as 100%; in assay [1] (non adding coffee extract, read-out: Inhibiting rate (%) (non adding coffee extract)), 100%. Moreover, the “Inhibiting rate (%) (adding 0.1 w/v % of drug)” value in the assay on mice (with 0.1 w/v % of caffeine) is listed as 100%. In addition, in the assay on mice (without caffeine), the “Inhibiting rate (%) (non-caffeine added)” value is recorded as 96%. In addition, the “Days needed to suppurate and recovery completely” value in assay [2] (one value per patient) was “About 8 days and ~10 days”. The Toothache pain result in assay [2] (two patients) was “pains were killed”. Further, in the assay on person, the change in vivo at 1800 mg worked out at 315%.
